Reference: patent publication US9580390B2, “Indazole compounds as kinase inhibitors and method of treating cancer with same” (University Health Network, priority 2011, dated 2017)
Like-named read-outs stand apart in the source and are kept apart here. Blank lines part the entries; values can stand above or below the molecule they belong to.

Assays:
human PLK4 = molecular target: T1, human PLK4 (Homo sapiens, UniProt O00444); experiment: PLK4 inhibition assay (indirect ELISA); type: biochemical; conditions: 15 μM ATP
T1 construct: amino terminal GST fusion of residues 1-391 of human PLK4; made in house; host or cells: E. coli
T1 sequence (O00444 1-391): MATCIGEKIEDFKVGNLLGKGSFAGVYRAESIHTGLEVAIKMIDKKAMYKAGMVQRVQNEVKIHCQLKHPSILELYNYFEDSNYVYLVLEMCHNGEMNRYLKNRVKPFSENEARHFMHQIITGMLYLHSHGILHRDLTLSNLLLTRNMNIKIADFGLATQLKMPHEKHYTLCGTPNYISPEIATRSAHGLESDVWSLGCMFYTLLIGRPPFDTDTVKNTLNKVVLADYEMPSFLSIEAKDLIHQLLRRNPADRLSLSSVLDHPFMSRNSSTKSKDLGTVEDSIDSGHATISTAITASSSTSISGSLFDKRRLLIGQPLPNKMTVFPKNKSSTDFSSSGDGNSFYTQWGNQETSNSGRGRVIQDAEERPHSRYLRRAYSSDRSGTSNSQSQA
Method: Active PLK4 was purified from an E. coli expression system as an amino terminal GST fusion of residues 1-391 of human PLK4. The protein was purified from clarified cell extracts after induction at 15° C. overnight using glutathione sepharose, gel permeation chromatography, and ion exchange (Resource Q). The resulting protein was dephosphorylated with lambda phosphatase (NEB cat# P0753), and resolved from the phosphatase using gluthione sepharose. The dephosphorylated GST-PLK4 was stored in aliquots at −80° C. until use.
PLK4 activity was measured using an indirect ELISA detection system. Dephosphorylated GST-PLK4 (4 nM) was incubated in the presence of 15 μM ATP (Sigma cat# A7699), 50 mM HEPES-[…] pH 7.4, 10 mM MgCl2, 0.01% Brij 35 (Sigma cat# 03-3170), in a 96 well microtitre plate pre-coated with MBP (Millipore cat#30-011). The reaction was allowed to proceed for 30 minutes, followed by 5 washes of the plate with Wash Buffer (50 mM TRIS-Cl pH 7.4 and 0.2% Tween 20), and incubation for 30 minutes with a 1:3000 dilution of primary antibody (Cell Signaling cat# 9381). The plate was washed 5 times with Wash Buffer, incubated for 30 minutes in the presence of secondary antibody coupled to horse radish peroxidase (BioRad cat# 1721019, 1:3000 concentration), washed an additional 5 times with Wash Buffer, and incubated in the presence of TMB substrate (Sigma cat# T0440). The colourimetric reaction was allowed to continue for 5 minutes, followed by addition of stop solution (0.5 N sulphuric acid), and quantified by detection at 450 nm with either a monochromatic or filter based plate reader (Molecular Devices M5 or Beckman DTX880, respectively).
Compound inhibition was determined at either a fixed concentration (10 μM) or at a variable inhibitor concentration (typically 50 μM to 0.1 μM in a 10 point dose response titration). Compounds were pre-incubated in the presence of enzyme for 15 minutes prior to addition of ATP and the activity remaining quantified using the above described activity assay. The % Inhibition of a compound was determined using the following formula: % Inhibition=100×(1−(experimental value−background value)/(high activity control−background value)). The IC50 value was determined using a non-linear 4 point logistic curve fit (XLfit4, IDBS) with the formula: (A+(B/(1+((x/C)^D)))), where A=background value, B=range, C=inflection point, D=curve fit parameter.

[1] = tested on: colon cancer cells (HCT116); experiment: Cancer cell line growth inhibition (SRB assay); type: cell-based; conditions: Homo sapiens, HCT-116, read-out: Cancer Cell Line GI50 Range HCT116
Breast cancer cells = experiment: Cancer cell line growth inhibition (SRB assay); type: cell-based; conditions: Homo sapiens; MDA-MB-468; read-out: Cancer Cell Line GI50 Range MDA-MB-468
[2] = tested on: ovarian cancer cells (PA-1); experiment: Cancer cell line growth inhibition (SRB assay); type: cell-based; conditions: Homo sapiens, PA-1; read-out: Cancer Cell Line GI50 Range PA-1
TICs (Ovarian 2393A) = experiment: Ovarian tumor-initiating cell growth inhibition (Alamar Blue); type: cell-based; conditions: 144 h; Ovarian 2393A TICs, 6 days; read-out: Tumor Initiating Cell GI50 Range Ovarain 2393A
TICs (Colon 12) = experiment: Colon tumor-initiating cell growth inhibition (Alamar Blue); type: cell-based; conditions: 216 h; Colon 12 TICs, 9 days; read-out: Tumor Initiating Cell GI50 Range Colon 12
human TTK = molecular target: T2, human TTK (Homo sapiens, UniProt P33981); experiment: TTK inhibition assay (indirect ELISA); type: biochemical; conditions: read-out: TTK IC50 Range
T2 construct: amino terminal GST fusion of full length human TTK; purchased Invitrogen
T2 sequence (P33981 1-857): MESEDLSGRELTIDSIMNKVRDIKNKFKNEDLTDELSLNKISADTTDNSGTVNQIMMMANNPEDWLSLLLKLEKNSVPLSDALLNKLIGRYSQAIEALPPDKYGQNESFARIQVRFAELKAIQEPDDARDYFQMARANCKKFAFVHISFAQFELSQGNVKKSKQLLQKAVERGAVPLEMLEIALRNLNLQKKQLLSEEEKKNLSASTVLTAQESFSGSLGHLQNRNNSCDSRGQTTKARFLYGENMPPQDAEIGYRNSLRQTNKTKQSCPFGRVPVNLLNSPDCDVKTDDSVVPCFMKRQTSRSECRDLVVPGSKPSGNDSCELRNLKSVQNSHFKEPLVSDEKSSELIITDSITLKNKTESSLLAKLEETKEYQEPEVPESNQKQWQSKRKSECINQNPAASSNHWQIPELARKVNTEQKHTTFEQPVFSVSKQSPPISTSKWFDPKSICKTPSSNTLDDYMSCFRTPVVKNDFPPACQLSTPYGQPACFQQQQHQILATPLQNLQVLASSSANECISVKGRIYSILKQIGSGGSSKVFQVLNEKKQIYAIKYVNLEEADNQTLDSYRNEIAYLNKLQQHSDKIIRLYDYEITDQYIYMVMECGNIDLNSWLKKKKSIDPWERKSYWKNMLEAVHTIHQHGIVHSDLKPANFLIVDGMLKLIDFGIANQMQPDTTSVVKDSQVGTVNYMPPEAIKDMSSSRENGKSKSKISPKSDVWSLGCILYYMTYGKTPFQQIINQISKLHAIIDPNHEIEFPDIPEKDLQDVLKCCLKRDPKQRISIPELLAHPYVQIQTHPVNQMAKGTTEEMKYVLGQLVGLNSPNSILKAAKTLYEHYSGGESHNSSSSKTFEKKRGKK

[3] = HCT116 colon cancer cells, SRB assay

IC50 (human PLK4): < 50 nM
Structure (SMILES): CN1CCC(Oc2ccc(-c3n[nH]c4ccc(NC(=O)C(c5ccsc5)N5CCCC5)cc34)cc2)CC1 (stereo not shown) [Example A7, N-(3-(4-((1-methylpiperidin-4-yl)oxy)phenyl)-1H-indazol-5-yl)-2-(pyrrolidin-1-yl)-2-(thiophen-3-yl)acetamide]

GI50 [1, 3]: > 500 nM
IC50 (human PLK4): < 50 nM
Structure (SMILES): O=C(Nc1ccc2[nH]nc(-c3ccc4c(c3)OCO4)c2c1)C(c1ccsc1)N1CCCC1 (stereo not shown) [Example A14, N-(3-(benzo[d][1,3]dioxol-5-yl)-1H-indazol-5-yl)-2-(pyrrolidin-1-yl)-2-(thiophen-3-yl)acetamide]

GI50 [1, 3]: > 500 nM
IC50 (human PLK4): < 50 nM
Structure (SMILES): O=C(Nc1ccc2[nH]nc(-c3ccc4c(c3)OCCO4)c2c1)C(c1ccsc1)N1CCCC1 (stereo not shown) [Example A15, N-(3-(2,3-dihydrobenzo[b][1,4]dioxin-6-yl)-1H-indazol-5-yl)-2-(pyrrolidin-1-yl)-2-(thiophen-3-yl)acetamide]

GI50 [1, 3]: < 100 nM
IC50 (human PLK4): < 50 nM
Structure (SMILES): O=C(Nc1ccc2[nH]nc(-c3ccc(OC4CCNCC4)c(Cl)c3)c2c1)C(c1ccsc1)N1CCCC1 (stereo not shown) [Example A34, N-(3-(3-chloro-4-(piperidin-4-yloxy)phenyl)-1H-indazol-5-yl)-2-(pyrrolidin-1-yl)-2-(thiophen-3-yl)acetamide]

GI50 [1, 3]: < 100 nM
IC50 (human PLK4): < 50 nM
Structure (SMILES): O=C(Nc1ccc2[nH]nc(-c3ccc(OCCCN4CCOCC4)cc3)c2c1)C(c1ccsc1)N1CCCC1 (stereo not shown) [Example A45, N-(3-(4-(3-morpholinopropoxy)phenyl)-1H-indazol-5-yl)-2-(pyrrolidin-1-yl)-2-(thiophen-3-yl)acetamide]

GI50 [1, 3]: < 100 nM
IC50 (human PLK4): < 50 nM
Structure (SMILES): C[C@@H]1CN(c2ccc(-c3n[nH]c4ccc(NC(=O)C(c5ccsc5)N5CCCC5)cc34)cc2)C[C@H](C)O1 (stereo partly drawn) [Example A50, N-(3-(4-((2S,6R)-2,6-dimethylmorpholino)phenyl)-1H-indazol-5-yl)-2-(pyrrolidin-1-yl)-2-(thiophen-3-yl)acetamide]

GI50 [1, 3]: 100 to 500 nM
IC50 (human PLK4): < 50 nM
Structure (SMILES): CN1CCC(Oc2ccc(-c3n[nH]c4ccc(NC(=O)C(c5ccsc5)N5CCCC5)cc34)cc2Cl)CC1 (stereo not shown) [Example A57]

GI50 [1, 3]: 100 to 500 nM
IC50 (human PLK4): < 50 nM
Structure (SMILES): O=C(Nc1ccc2[nH]nc(-c3ccc(N4CCOCC4)c(F)c3)c2c1)C(c1ccsc1)N1CCCC1 (stereo not shown) [Example A60, N-(3-(3-fluoro-4-morpholinophenyl)-1H-indazol-5-yl)-2-(pyrrolidin-1-yl)-2-(thiophen-3-yl)acetamide]

GI50 [1, 3]: 100 to 500 nM
IC50 (human PLK4): < 50 nM
Structure (SMILES): CCC(NC(=O)c1ccc2[nH]nc(-c3ccc(OC4CCN(C)CC4)cc3)c2c1)C1CCCCC1 (stereo not shown) [Example A69, N-(1-cyclohexylpropyl)-3-(4-((1-methylpiperidin-4-yl)oxy)phenyl)-1H-indazole-5-carboxamide]

GI50 [1, 3]: < 100 nM
IC50 (human PLK4): < 50 nM
Structure (SMILES): O=C(Nc1ccc2[nH]nc(-c3ccc(NC4CCOCC4)cc3)c2c1)C(c1ccsc1)N1CCCC1 (stereo not shown) [Example A71, 2-(pyrrolidin-1-yl)-N-(3-(4-((tetrahydro-2H-pyran-4-yl)amino)phenyl)-1H-indazol-5-yl)-2-(thiophen-3-yl)acetamide]

IC50 (human PLK4): < 50 nM
Structure (SMILES): O=C(NC(c1ccsc1)C1CC1)c1ccc2[nH]nc(-c3ccc(N4CCC(O)CC4)cc3)c2c1 (stereo not shown) [Example A101, N-(cyclopropyl(thiophen-3-yl)methyl)-3-(4-(4-hydroxypiperidin-1-yl)phenyl)-1H-indazole-5-carboxamide]

IC50 (human PLK4): < 50 nM
Structure (SMILES): CN1CCC(Oc2ccc(-c3n[nH]c4ccc(NC(=O)C(c5ccccn5)C5CCCC5)cc34)cc2)CC1 (stereo not shown) [Example A179, 2-cyclopentyl-N-(3-(4-((1-methylpiperidin-4-yl)oxy)phenyl)-1H-indazol-5-yl)-2-(pyridin-2-yl)acetamide]

IC50 (human PLK4): < 50 nM
Structure (SMILES): CC(C)C[C@H](NC(=O)c1ccc2[nH]nc(-c3ccc(N4C5COCC4CC(O)C5)cc3)c2c1)c1ccccn1 (stereo partly drawn) [Example A306, 3-(4-((1R,5S,7R)-7-hydroxy-3-oxa-9-azabicyclo[3.3.1]nonan-9-yl)phenyl)-N-((S)-3-methyl-1-(pyridin-2-yl)butyl)-1H-indazole-5-carboxamide]

GI50 (Breast cancer cells): < 100 nM
GI50 [2]: < 100 nM
GI50 (TICs (Ovarian 2393A)): < 100 nM
GI50 [1]: < 100 nM
GI50 (TICs (Colon 12)): < 100 nM
IC50 (human TTK): < 100 nM
Structure (SMILES): CC1=CC2(CCN(C)CC2)Oc2ccc(-c3n[nH]c4ccc(C(=O)NCC5(N6CCOCC6)CCCCC5)cc34)cc21 [Example A489, 3-(1′,4-dimethylspiro[chromene-2,4′-piperidin]-6-yl)-N-((1-morpholinocyclohexyl)methyl)-1H-indazole-5-carboxamide]

Structure (SMILES): O=C(NCC1(c2ccccc2)CCOCC1)c1ccc2[nH]nc(-c3ccc(N4[C@@H]5CC[C@H]4COC5)cc3)c2c1 [Example A502, 3-(4-((1R,5S)-3-oxa-8-azabicyclo[3.2.1]octan-8-yl)phenyl)-N-((4-phenyltetrahydro-2H-pyran-4-yl)methyl)-1H-indazole-5-carboxamide]
GI50 (Breast cancer cells): < 100 nM
GI50 [2]: < 100 nM
GI50 (TICs (Ovarian 2393A)): < 100 nM
GI50 [1]: < 100 nM
GI50 (TICs (Colon 12)): < 100 nM
IC50 (human TTK): < 100 nM

GI50 (Breast cancer cells): 100 to 500 nM
GI50 [2]: < 100 nM
GI50 (TICs (Ovarian 2393A)): 100 to 500 nM
GI50 [1]: < 100 nM
GI50 (TICs (Colon 12)): > 500 nM
IC50 (human TTK): < 100 nM
Structure (SMILES): O=C(NCC1(N2CCOCC2)CCCCC1)c1ccc2[nH]nc(-c3ccc(N4CCNCC4)cc3)c2c1 [Example A505, N-((1-morpholinocyclohexyl)methyl)-3-(4-(piperazin-1-yl)phenyl)-1H-indazole-5-carboxamide]

Structure (SMILES): O=C(NCC1(N2CCOCC2)CCCCC1)c1ccc2[nH]nc(-c3ccc(N4[C@@H]5CC[C@H]4C[C@@H](O)C5)cc3)c2c1 [Example A508, 3-(4-((1R,3R,5S)-3-hydroxy-8-azabicyclo[3.2.1]octan-8-yl)phenyl)-N-((1-morpholinocyclohexyl)methyl)-1H-indazole-5-carboxamide]
GI50 (Breast cancer cells): < 100 nM
GI50 [2]: < 100 nM
GI50 (TICs (Ovarian 2393A)): < 100 nM
GI50 [1]: < 100 nM
GI50 (TICs (Colon 12)): < 100 nM
IC50 (human TTK): < 100 nM
